Test results published in patent US20250000835A1, “SYNERGIES OF 1- BETA-CARYOPHYLLENE, CANNABIDIOL AND TRIBUTYRIN; 2- RETINYL PALMITATE, BETA-CARYOPHYLLENE AND CANNABIDIOL; 3- RETINYL PALMITATE AND BETA-CARYOPHYLLENE IN CONTROLING INFLAMMATION, METABOLIC HEALTH, INSULIN SENSITIVITY/ GLYCEMIC - GLUCOSE UPTAKE & MANAGEMENT, AND FATTY LIVER/ NAFLD” (FLG Sciences, LLC, priority 2022, published 2025).

Key:
Type in all cases: cell-based
[1] = system: C2C12 myotubes (muscle cells); assay: Cellular antioxidant (AOx) capacity, Cu2+ ion conversion assay, C2C12 muscle cells; settings: vs DMSO control
Protocol: (§1) There were two different treatment experiments including: Cells treated with compounds 1-5 above for 3 hours; Cells treated with compounds 1-5 above for 12 hours with a concomitant TNF-alpha treatment (15 ng/mL); Cell treatments were performed using C2C12 myotubes (muscle cells), and AML-12 cells (liver cells).
(§2) There are also combination formulations, where the following combination formulations were tested: 6) Control or “vehicle” (DMSO only); 7) Vitamin A, or “VitA” (1.2 μM)+Beta-caryophyllene (100 ng/mL)+Tributyrin (10 μM); 8) Vitamin A, or “VitA” (1.2 μM)+Beta-caryophyllene (100 ng/mL)+CBD (95 ng/ml); 9) Beta-caryophyllene (100 ng/mL)+CBD (95 ng/mL)+Tributyrin (10 μM); 10) Vitamin A, or “VitA” (1.2 μM)+Beta-caryophyllene (100 ng/mL).
(§3) As with single ingredients, two different treatment experiments occurred with these combos including: Cells treated with compounds 1-5 above for 3 hours. Cells treated with compounds 1-5 above for 12 hours with a concomitant TNF-alpha treatment (15 ng/ml)
(§4) All cells were grown to confluence using cell-specific media and additives.
(§5) The day of treatment, culture media was spiked with the appropriate ingredients (these are termed “treatment media”) […]
(§6) Total antioxidant capacity was assessed using a Cu2+ ion is conversion assay.

PPARγ [2] = target: T1, PPARγ (Mus musculus, UniProt P37238); assay: PPARγ DNA binding activity, AML-12 liver cells; settings: vs DMSO control
T1 construct: endogenous in cells; host or cells: C2C12 myotubes (muscle cells)
T1 sequence (P37238 1-505): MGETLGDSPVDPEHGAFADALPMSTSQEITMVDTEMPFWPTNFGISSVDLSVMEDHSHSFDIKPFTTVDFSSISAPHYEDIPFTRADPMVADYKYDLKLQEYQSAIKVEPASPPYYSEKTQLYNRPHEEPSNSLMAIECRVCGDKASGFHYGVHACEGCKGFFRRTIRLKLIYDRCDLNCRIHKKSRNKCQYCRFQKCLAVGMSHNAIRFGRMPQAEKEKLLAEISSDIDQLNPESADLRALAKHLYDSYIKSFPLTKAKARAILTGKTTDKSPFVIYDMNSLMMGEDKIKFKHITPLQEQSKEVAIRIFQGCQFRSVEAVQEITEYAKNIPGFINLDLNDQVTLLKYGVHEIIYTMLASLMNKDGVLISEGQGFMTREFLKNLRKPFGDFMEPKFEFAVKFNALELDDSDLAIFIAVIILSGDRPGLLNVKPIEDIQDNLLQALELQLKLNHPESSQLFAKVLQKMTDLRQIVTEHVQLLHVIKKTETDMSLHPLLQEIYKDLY
Protocol: as §1, §2, §3, §4
(§7) The day of treatment, culture media was spiked with the appropriate ingredients (these are termed “treatment media”)
(§8) After either the 3-h or 12-h treatments described above, treatment media was removed, cells were rinsed with 1× phosphate-buffered saline, and general cell lysis buffer (Tris-based with detergent) was used to lyse cells
(§9) Cells were scraped off the plate with a rubber policeman in the lysis buffer, the slurry was placed in 1.7 mL tubes, and lysates were frozen at −80° C. until the respective assays discussed below.
(§10) There are n=5-6 replicates per treatment condition.
(§11) PPARγ DNA binding activity was assessed using a plate that was pre-coated with a PPAR-gamma consensus binding sequence. Thereafter, antibody-based methods were used to assess the amount of bound transcription factor, and data were normalized to total protein loaded in the assay.

PPARγ [3] = target: T1, PPARγ; assay: PPARγ DNA binding activity, C2C12 muscle cells; settings: vs DMSO control
Protocol: as §1, §2, §3, §4, §7, §8, §9, §10, §11

AML-12 liver cells [4] = assay: Cellular antioxidant (AOx) capacity, Cu2+ ion conversion assay, AML-12 liver cells; settings: 3 h treatment, vs DMSO control, CBD 95 ng/ml, VitA 1.2 μM, tributyrin 10 μM, beta-caryophyllene 100 ng/ml
Protocol: as §1, §2, §3, §4, §5, §6

phosphorylated p65/NF-κB = assay: Inflammatory signaling (phosphorylated NF-kB) by Western blotting, C2C12 muscle cells; settings: vs DMSO control
Protocol: as §1, §2, §3, §4, §7, §8, §9, §10
SOD2, SOD1, phosphorylated p65/NF-κB, pro-caspase 1, and NLRP3 were assayed using Western blotting methods.

AML-12 liver cells [5] = assay: Cellular glucose levels, colorimetric glucose oxidase assay, AML-12 liver cells; settings: 12 h treatment with TNF-alpha (15 ng/mL), vs DMSO control
Protocol: as §1, §2, §3, §4, §5

[6] = system: C2C12 myotubes (muscle cells); assay: Cellular glucose levels, colorimetric glucose oxidase assay, C2C12 muscle cells; settings: 12 h treatment with TNF-alpha (15 ng/mL), vs DMSO control
Protocol: as §1, §2, §3, §4, §5

SOD2 = SOD2 protein levels by Western blotting, C2C12 muscle cells; settings: 3 h and 12 h with TNF-alpha, treatment not told apart in text, vs DMSO control
Protocol: as §1, §2, §3, §4, §5

[7] = 12 h treatment with TNF-alpha (15 ng/mL)

| Compound | Cellular AOx capacity vs control ([1]; 3 h treatment, CBD 95 ng/ml, VitA 1.2 μM, tributyrin 10 μM, beta-caryophyllene 100 ng/ml) | PPARγ DNA binding activity vs control (PPARγ [2]; 3 h treatment) | PPARγ DNA binding activity vs control (PPARγ [3]; 3 h treatment) | Cellular AOx capacity vs control (AML-12 liver cells [4]) | NF-kB phosphorylation vs control (phosphorylated p65/NF-κB; [7]) | PPARγ DNA binding activity vs control (PPARγ [2]; [7]) | Cellular glucose levels vs control (AML-12 liver cells [5]) | Cellular glucose levels vs control [6] | SOD2 protein levels vs control (SOD2) | PPARγ DNA binding activity vs control (PPARγ [3]; [7]) | Cellular AOx capacity vs control [1, 7] | NF-kB phosphorylation vs control (phosphorylated p65/NF-κB; 3 h treatment) |
| --- | --- | --- | --- | --- | --- | --- | --- | --- | --- | --- | --- | --- |
| CCCCCCCCCCCCCCCC(=O)OC/C=C(C)/C=C/C=C(C)/C=C/C1=C(C)CCCC1(C)C [vitamin A, Retinyl palmitate] | expressed significance values | significance values greater than control group | significance value greater than control group | showed an antioxidant capacity |  |  |  |  |  |  |  |  |
| C=C1CC/C=C(\C)CC[C@@H]2[C@@H]1CC2(C)C [BCP, beta-caryophyllene] |  | significance values greater than control group |  |  | significant values in reducing NF-kB phosphorylation |  |  |  |  |  |  |  |
| CCCC(=O)OCC(COC(=O)CCC)OC(=O)CCC [tributyrin, Tributyrin] |  | significance values greater than control group |  |  | significant values in reducing NF-kB phosphorylation | significance value greater than control group | increases cell glucose | increases cell glucose | significance value less the control | values of greater significance than the control |  |  |
| cannabidiol [CBD] |  |  |  | expressed results with significance value |  |  |  |  | significance value less the control | values of greater significance than the control | expressed significance value | the only one with significant value among the ingredients |
